According to patent US9464092B2, “Transient protection of normal cells during chemotherapy” (G1 Therapeutics, Inc., priority 2013, dated 2016):
Where two headings read alike, the source gives them in different places. One block for each compound: values may come before it.

Key:
[1] = biological target: CDK4/CyclinD1 (Homo sapiens (Human), UniProt P11802); assay: CDK4/CyclinD1 kinase assay (Nanosyn, Caliper microfluidic); format: biochemical; conditions: read-out: CDK4/CycD1 IC50
[2] = biological target: CDK2/CyclinE (Homo sapiens (Human), UniProt P24941); assay: CDK2/CyclinE kinase assay (Nanosyn, Caliper microfluidic); format: biochemical; conditions: for IC50: read-out: CDK2/CycE IC50
[3] = biological target: CDK2/CyclinA (Homo sapiens (Human), UniProt P24941); assay: CDK2/CyclinA kinase assay (Nanosyn, Caliper microfluidic); format: biochemical; conditions: for IC50: read-out: CDK2/CycA IC50
How it was run: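 Phosphorylation was read by Caliper microfluidic detection. Compounds ran as 12-point dose-responses in singlicate, with staurosporine as reference.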

[4] = biological target: CDK6/CyclinD3 (Homo sapiens (Human), UniProt Q00534); assay: CDK6/CyclinD3 kinase assay (Nanosyn, Caliper microfluidic); format: biochemical; conditions: Table 3; read-out: CDK6/CycD3 IC50
[5] = Mouse pharmacokinetics (oral gavage / intravenous); format: in vivo, mice; conditions: mouse
[6] = system: HSPCs (bone marrow); assay: HSPC proliferation in bone marrow by EdU incorporation after oral gavage; format: in vivo, mice
Protocol: Mice were then sacrificed at the indicated times (0, 12, 24, 36, or 48 hours following compound administration), and bone marrow was harvested (n=3 mice per time point), as previously described (Johnson et al. J. Clin. Invest. (2010) 120(7), 2528-2536). Four hours before the bone marrow was harvested, mice were treated with 100 μg of EdU by intraperitoneal injection (Invitrogen). Bone marrow mononuclear cells were harvested and immunophenotyped using previously described methods and percent EdU positive cells were then determined (Johnson et al. J. Clin. Invest. (2010) 120(7), 2528-2536). In brief, HSPCs were identified by expression of lineage markers (Lin-), Sca1 (S+), and c-Kit (K+).
Four hours before animals were sacrificed and the bone marrow was harvested, mice were treated with 100 μg of EdU by intraperitoneal injection. Three mice per group were sacrificed at 12 hours and the remaining three animals per group were sacrificed at 24 hours. Results are shown in FIG. 6A as the ratio of EdU positive cells for treated animals at 12 or 24 hour time points compared to control.
Further experiments were completed with Compound T examining dose response and longer periods of compound treatment. […] […].
Both compounds were administered at 150 mg/kg by oral gavage. One hour prior to harvesting bone marrow, EdU was IP injected to label cycling cells. Bone marrow was harvested at 12, 24, 36, and 48 hours after compound treatment and the percentage of EdU positive HSPC cells was determined at each time point.

[7] = system: bone marrow progenitors; assay: Carboplatin-induced cytotoxicity in bone marrow (EdU); format: in vivo, FVB/n mice; conditions: 150 mg/kg oral gavage plus 90 mg/kg carboplatin i.p., 24 hours
Protocol: To assess the effect of transient CDK4/6 inhibition by Compound GG on carboplatin-induced cytotoxicity in the bone marrow, FVB/n mice (n=3 per group) were treated with vehicle control, 90 mg/kg carboplatin by intraperitoneal injection, or 150 mg/kg Compound GG by oral gavage plus 90 mg/kg carboplatin by intraperitoneal injection. 24 hours after treatment bone marrow was harvested and the percent of cycling bone marrow progenitors was measured by EdU incorporation as explained earlier. […] EdU incorporation in control animals was normalized to 100% and compared to EdU incorporation for bone marrow from carboplatin treated animals or carboplatin and Compound GG treated animals.

[8] = system: RB-negative SCLC cell lines (H69, H82, H209, H345, NCI417, or SHP-77); assay: EdU proliferation, RB-negative SCLC cell lines; conditions: 24 hours
[9] = system: RB-intact, Cdk4/6-dependent cell line (WM2664 or tHS68); assay: EdU proliferation, RB-intact Cdk4/6-dependent cell line; conditions: 24 hours
[10] = Metabolic stability in liver microsomes; format: in vitro ADME, human, dog, rat, monkey, and mouse; conditions: Sprague-Dawley (rat), liver microsomes, pH 7.4; each of the species tested (human, monkey, dog, rat, mouse), 1 uM
Protocol: Human, mouse, and dog liver microsomes were purchased from Xenotech, and Sprague-Dawley rat liver microsomes were prepared by Absorption Systems. The reaction mixture comprising 0.5 mg/mL of liver microsomes, 100 mM of potassium phosphate, pH 7.4, 5 mM of magnesium chloride, and 1 uM of test compound was prepared. The test compound was added into the reaction mixture at a final concentration of 1 uM. An aliquot of the reaction mixture (without cofactor) was incubated in shaking water bath at 37 deg. C. for 3 minutes. The control compound, testosterone, was run simultaneously with the test compound in a separate reaction. The reaction was initiated by the addition of cofactor (NADPH), and the mixture was then incubated in a shaking water bath at 37 deg. C. Aliquots (100 μL) were withdrawn at 0, 10, 20, 30, and 60 minutes for the test compound and 0, 10, 30, and 60 minutes for testosterone. […] Test compound samples were analyzed using the Orbitrap high resolution mass spectrometer to quantify the disappearance of parent test compound and detect the appearance of metabolites. […] Half-lives were calculated using GraphPad software, fitting to a single-phase exponential decay equation.
When calculated half-life was longer than the duration of the experiment, the half-life was expressed as >the longest incubation time. The calculated half-life is also listed in parentheses. […]

[11] = system: HS68 cells (human fibroblast, Rb-positive); assay: Cellular wash-out experiment, HS68; format: cell-based
Protocol: EMBO J, 21(12)2936-2945 (2002) and Ruas et al. Mol Cell Biol, 27(12)-4273-4282 (2007)). […] On day 3, one set of treated cell samples were harvested in triplicate (0 Hour sample). Remaining cells were washed two times in PBS-CMF and returned to culture media lacking test compound. Sets of samples were harvested in triplicate at 24, 40, and 48 hours. Upon harvesting cells, samples were stained with propidium iodide staining solution and samples run on Dako Cyan Flow Cytometer. The fraction of cells in G0-G1 DNA cell cycle versus the fraction in S-phase DNA cell cycle was determined using FlowJo 7.2 0.2 analysis.

[12] = system: human renal proximal tubule epithelial cells (Rb-positive); assay: Cellular wash-out experiment, renal proximal tubule epithelial cells; format: cell-based; conditions: 300 nM, compared to compounds T, Q, GG, or U
Protocol: Alternatively, the same experiment was done using normal Renal Proximal Tubule Epithelial Cells (Rb-positive) obtained from American Type Culture Collection (ATCC, Manassas, Va.). Cells were grown in an incubator at 37° C. in a humidified atmosphere of 5% CO2 in Renal Epithelial Cell Basal Media (ATCC) supplemented with Renal Epithelial Cell Growth Kit (ATCC) in 37° C. humidified incubator.
Upon harvesting cells, samples were stained with propidium iodide staining solution and samples run on Dako Cyan Flow Cytometer. The fraction of cells in G0-G1 DNA cell cycle versus the fraction in S-phase DNA cell cycle was determined using FlowJo 7.2 0.2 analysis.

[13] = PD0332991 pharmacokinetics / HSPC arrest in humans; format: in vivo
Protocol: When calculated half-life was longer than the duration of the experiment, the half-life was expressed as >the longest incubation time. The calculated half-life is also listed in parentheses. […] The timely resumption of cellular proliferation is necessary for tissue repair, and therefore an overly long period of arrest is undesirable in healthy cells such as HSPCs. The characteristics of a CDK4/6 inhibitor that dictate its arresting duration are its pharmacokinetic (PK) and enzymatic half-lives. Once initiated, a G1-arrest in vivo will be maintained as long as circulating compound remains at an inhibitory level, and as long as the compound engages the enzyme. […] […]. […] […]. These observations may explain the severe granulocytopenia seen with PD0332991 in the clinic.

[14] = mice; cited from earlier work
[15] = humans; cited from earlier work
[16] = Grade 3/4 neutropenia and leukopenia; cited from earlier work
[17] = system: HSPC (LKS+) and myeloid progenitor cells (LKS-); conditions: single oral dose 150 mg/kg, mice; cited from earlier work

Sequence of CDK4/CyclinD1 (P11802 whole entry, species assumed): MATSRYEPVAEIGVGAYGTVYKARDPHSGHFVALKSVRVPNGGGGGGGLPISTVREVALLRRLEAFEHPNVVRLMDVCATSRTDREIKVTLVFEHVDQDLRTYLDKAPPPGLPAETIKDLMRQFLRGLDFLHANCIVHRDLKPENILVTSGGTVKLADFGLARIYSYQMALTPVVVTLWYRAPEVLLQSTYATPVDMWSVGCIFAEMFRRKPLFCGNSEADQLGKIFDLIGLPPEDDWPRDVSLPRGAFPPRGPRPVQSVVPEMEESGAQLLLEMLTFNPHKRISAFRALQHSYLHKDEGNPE
Sequence of CDK4/CyclinD1 (P24385 whole entry partner, species assumed): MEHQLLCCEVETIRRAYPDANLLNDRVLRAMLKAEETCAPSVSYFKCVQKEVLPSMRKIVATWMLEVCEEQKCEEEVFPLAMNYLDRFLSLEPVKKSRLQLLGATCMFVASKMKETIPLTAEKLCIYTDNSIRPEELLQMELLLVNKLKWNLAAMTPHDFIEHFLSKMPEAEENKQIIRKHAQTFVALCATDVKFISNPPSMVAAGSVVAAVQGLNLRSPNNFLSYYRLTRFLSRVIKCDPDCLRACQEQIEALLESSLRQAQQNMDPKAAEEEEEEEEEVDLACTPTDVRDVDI
Sequence of CDK6/CyclinD3 (Q00534 whole entry, species assumed): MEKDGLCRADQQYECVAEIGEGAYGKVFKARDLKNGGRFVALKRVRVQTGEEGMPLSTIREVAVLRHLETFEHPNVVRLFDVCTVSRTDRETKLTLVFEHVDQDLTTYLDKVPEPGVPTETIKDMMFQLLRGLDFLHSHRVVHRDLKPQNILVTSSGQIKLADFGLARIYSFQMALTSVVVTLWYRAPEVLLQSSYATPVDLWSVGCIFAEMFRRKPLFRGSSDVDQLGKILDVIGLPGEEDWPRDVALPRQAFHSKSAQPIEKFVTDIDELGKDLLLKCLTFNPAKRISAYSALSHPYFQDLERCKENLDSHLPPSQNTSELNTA
Sequence of CDK6/CyclinD3 (P30281 whole entry partner, species assumed): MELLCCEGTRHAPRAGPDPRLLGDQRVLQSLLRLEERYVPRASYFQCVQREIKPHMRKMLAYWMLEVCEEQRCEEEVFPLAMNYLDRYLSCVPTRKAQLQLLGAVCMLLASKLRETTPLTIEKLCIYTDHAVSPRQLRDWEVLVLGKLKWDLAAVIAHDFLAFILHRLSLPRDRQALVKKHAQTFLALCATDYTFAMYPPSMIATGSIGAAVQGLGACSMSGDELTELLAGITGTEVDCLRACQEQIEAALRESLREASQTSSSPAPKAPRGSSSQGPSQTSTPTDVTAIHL

Compound: CC(C)N1CCN(c2ccc(Nc3ncc4cc5n(c4n3)C3(CCCCC3)CNC5=O)nc2)CC1 [Compound GG, 2′-((5-(4-isopropylpiperazin-1-yl)pyridin-2-yl)amino)-7′,8′-dihydro-6′H-spiro[cyclohexane-1,9′-pyrazino[1′,2′:1,5]pyrrolo[2,3-d]pyrimidin]-6′-one]
IC50 ([1]; Table 2): 1 nM
IC50 ([1]; Table 3): 1.06 nM
Fold Selectivity CDK2/CDK4 ([2]; CDK2/CycE IC50 divided by CDK4/CycD1 IC50): 3377
Fold Selectivity (CDK2/CycE/CDK4) ([2]; Table 2): 3377
IC50 ([2]; Table 2): 3580 nM
IC50 ([2]; Table 3): 3580 nM
Fold Selectivity (CDK2/CycA/CDK4) ([3]; Table 2): 1425
IC50 ([3]; Table 2): 1510 nM
IC50 ([3]; Table 3): 1510 nM
IC50 [4]: 4.7 nM
F [5]: 52%
half-life ([5]; plasma, po, 30 mg/kg, 30 mg/kg oral gavage, read-out: t1/2 p.o. (converted)): 3.5 h
half-life ([5]; plasma, po, 30 mg/kg, read-out: plasma half-life following oral administration): 3 to 5 h
bioavailability ([5]; plasma, po, 30 mg/kg, read-out: oral bioavailability (F (%))): 52 to 80%
AUC(0-inf) ([5]; plasma, iv, 10 mg/kg i.v.): 1.1 µM·h
clearance ([5]; plasma, iv, 10 mg/kg i.v.): 82 mL/min/kg
Vd ([5]; plasma, iv, 10 mg/kg i.v., read-out: Vss): 7.5 L/kg
AUC ([5]; plasma, 30 mg/kg oral gavage): 1.9 µM·h
Cmax ([5]; plasma, 30 mg/kg oral gavage): 1900 nM
Tmax ([5]; plasma, 30 mg/kg oral gavage): 1 h
EdU incorporation into HSPCs at 12 and 24 hours compared to control ([6]; 150 mg/kg oral gavage): reduction in EdU incorporation at 12 hours which was starting to return to normal at 24 hours
G1-arrest of bone marrow stem cells (HSPC) ([6]; oral gavage, mice): dose dependent, transient, and reversible G1-arrest
protection of cycling bone marrow progenitors (EdU) [7]: significant protection of bone marrow progenitors
effect on proliferation (EdU, percent of cells in S-phase) [8]: does not affect the growth of the Rb-negative cell lines
effect on proliferation (EdU, percent of cells in S-phase) [9]: inhibits the Rb-positive cell line (tHS68)

half-life at 1 uM [10]: > 1 h
Compound: CC(=O)c1c(C)c2cnc(Nc3ccc(N4CCNCC4)cn3)nc2n(C2CCCC2)c1=O [PD0332991, 6-acetyl-8-cyclopentyl-5-methyl-2-(5-piperazin-1-yl-pyridin-2-ylammino)-8H-pyrido-[2,3-d]-pyrimidin-7-one]
time post wash out for cells to return to normal baseline cell division ([11]; 300 nM, HS68 cells): greater than 48 hours
duration of cell cycle arrest in human cells after compound is removed (wash-out) ([11]; in vitro wash-out experiment): more than forty hours
return to baseline levels of cell division after wash out [12]: took significantly longer to return to baseline levels of cell division
duration of cell cycle arrest of HSPC after a single administration [13]: approximately one week
PK half-life [14]: 6 h
PK half-life [15]: 27 h
patients requiring a dose interruption [16]: 71%
patients requiring a dose reduction [16]: 35%
duration of sustained reduction in HSPC and myeloid progenitor EdU incorporation [17]: greater than 36 hours
time post oral dosing at which HSPC and myeloid progenitor cells return to baseline cell division [17]: 48 h
effect on proliferation (EdU, percent of cells in S-phase) [8]: does not affect the growth of the Rb-negative small cell lung cancer cell lines
effect on proliferation (EdU, percent of cells in S-phase) [9]: inhibits the Rb-positive cell line (WM2664)
